Assay results from ChEMBL document CHEMBL1152111, “Synthesis and biological activity of conformationally constrained 4a-phenanthreneamine derivatives as noncompetitive NMDA antagonists” (Bioorg Med Chem Lett, 1993).
pIC50: −log10 of the molar value.

Legend:
[1] = Log P value at pH 7.4; format: physicochemical; conditions: buffer
[2] = organism: Mus musculus; assay: Ataxia assessment was made immediately prior to NMDA injection using a rotarod measurement; format: functional
[3] = test system: Mus musculus; assay: In vivo NMDA antagonism of compound was assessed for its ability to prevent lethality in mice due to injection of NMDA; format: functional
[4] = target: Glutamate NMDA receptor; assay: Inhibitory concentration of compound required to displace [3H]TCP 1-[ 1-(2-thienyl)cyclohexyl]piperidine in whole rat brain homogenate
[5] = test system: Mus musculus; assay: In vivo NMDA antagonism of compound was assessed for its ability to prevent lethality in mice due to injection of NMDA.; format: functional

SMILES	logD [1]	ED50 [2] [mg/kg]	ED50 [3] [mg/kg]	pIC50 [4]	ED50 [5] [mg/kg]
CN1C[C@@H]2Cc3ccccc3[C@]13CCCC[C@@H]23	0.94	3	1.8	6.86	
CN[C@]12CCCC[C@H]1CCc1ccccc12	1.1	0.44		7.83	0.54
CN1CC[C@]23CCCC[C@@]12c1ccccc1CC3	0.53	0.3		7.77	0.72
c1ccc2c(c1)C[C@H]1CN[C@@]23CCCC[C@@H]13	-0.1	3.2		7.07	3.5
c1ccc2c(c1)CC[C@@]13CCCC[C@]21NCC3		3.2	3.5	6.82	
C[C@]12N[C@H](Cc3ccccc31)c1ccccc12 [DIZOCILPINE]	2.1	0.1			0.34
